# In PubChem BioAssay (NCI):
# “And” between values parts separate entries of the source, which are not always exact repeats. Identical values can stand only once.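 Following 48 hours of exposure in 96-well plates, responses at five concentrations were used to interpolate endpoints linearly. GI50: concentration for 50% inhibition of growth. Definition used: TGI = concentration required for complete inhibition of growth.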 Where a SMILES comes first, the peptide text is derived from it. [ ]: non-standard residue; d: D form. The star is where a group is joined. Bn2Val = CC(C)[C@@H](C(=O)*)N(Cc1ccccc1)Cc1ccccc1; NH(3,4-diMeO-benzyl) = COc1ccc(CN*)cc1OC; NMeV = CN[C@H](C(=O)O)C(C)C; dNMeA = CN[C@H](C)C(=O)O
# How the values were obtained:
# Experiment in all cases: DTP human tumour cell line panel, 48 h
# [1] = system: PC-3 prostate
# [2] = system: DLD-1 colon
# [3] = system: KM20L2 colon
# [4] = system: M19-MEL melanoma
# [5] = system: SNB-78 CNS
# [6] = system: XF 498 CNS
# [7] = system: MDA-N
# [8] = system: HOP-18 NSCLC
# [9] = system: RXF-631 renal
smiles,measurement,setting,value
O=C1c2ccccc2C(=O)c2c1ccc1[nH]c(CCl)nc21,GI50,[1],2.23 µM
same,TGI,[1],7.01 µM
O=C1NC(=O)C2C(=O)NC(=O)C1C2(c1ccccc1)c1ccc(Cl)cc1 (stereo not given),TGI,[2],> 100 µM
same,TGI,[3],> 100 µM
same,TGI,[4],> 100 µM
same,TGI,[5],> 100 µM
same,TGI,[6],> 100 µM
Cn1cc(C2=C(c3ccc(OC[C@@H](O)CO)cc3)C(=O)NC2=O)c2ccccc21,GI50,[1],> 25 µM
same,TGI,[1],> 25 µM
CN(C)c1ccc2c(c1)oc(=O)c1ccccc12,TGI,[7],26.7 µM
same,TGI,[1],30.5 µM
COc1cc2c(c(OC)c1OC)-c1ccc(NCc3ccccc3)c(=O)cc1[C@@H](NC(C)=O)CC2,GI50,[1],0.406 µM
same,TGI,[1],43.7 µM
COC(=O)C(CC(=O)c1cc2c(cc1I)OCO2)Cc1cc(OC)c(OC)c(OC)c1I (stereo not given),TGI,[2],> 100 µM
same,TGI,[8],> 100 µM
same,TGI,[3],> 100 µM
same,TGI,[4],> 100 µM
same,TGI,[6],> 100 µM
Cc1c(N2C(=O)/C(=C\c3ccccc3O)N=C2c2ccccc2)c(=O)n(-c2ccccc2)n1C,GI50,[1],> 100 µM
same,TGI,[1],> 100 µM
N#Cc1nc(-c2ccc(F)cc2)oc1S(=O)(=O)N1CCOCC1,GI50,[1],11.6 µM
same,TGI,[1],26.9 µM
CCOC(=O)c1cc(-c2ccc([N+](=O)[O-])cc2)n(-c2ccc(C(=O)O)c(O)c2)c1C,GI50,[1],2.96 µM
same,TGI,[1],18.8 µM
CC1=C2[C@@H](CC1)[C@]1(C)O[C@@](C(C)C)(C[C@H]1OC(=O)[C@H](C)O)[C@H]2OC(=O)/C=C/c1ccccc1,GI50,[1],4.46 µM
same,TGI,[1],19.1 µM
COc1nc2c(cc1S(=O)(=O)c1ccccc1)CCc1c-2cnn1-c1ccccc1Cl,GI50,[1],3.09 µM
same,TGI,[1],> 100 µM
C[C@@H]1Cc2c([nH]c3ccccc23)[C@@H](c2c(F)cc(/C=C/C(=O)O)cc2F)N1CC(C)(C)F,GI50,[1],10.2 µM
same,TGI,[1],27.4 µM
Cc1c(Cl)cccc1Nc1ncccc1C(=O)O,GI50,[1],52.3 µM
same,TGI,[1],> 100 µM
O=C1Oc2cc3c(c4cccc1c24)OCN(c1ccc(Cl)cc1)C3,TGI,[2],> 54.2 µM
same,TGI,[8],91.5 µM
same,TGI,[3],> 100 µM
same,TGI,[4],> 57 µM
same,TGI,[5],> 100 µM
same,TGI,[6],45.6 µM
ClCc1ccccc1CSc1ncnc2nc[nH]c12,GI50,[1],> 60 µM
same,TGI,[1],> 60 µM
CCCCn1/c(=N/C(=S)N(C)C)ss/c1=N\C(=S)N(C)C,TGI,[2],> 100 µM
same,TGI,[8],> 100 µM
same,TGI,[3],> 100 µM
same,TGI,[4],> 100 µM
same,TGI,[5],> 100 µM
same,TGI,[6],> 100 µM
COc1cc2c(NCCCCCCO[N+](=O)[O-])ncnc2c(OC)c1OC,TGI,[7],56.4 µM
same,TGI,[1],63.4 µM
O=C(/C=C/c1cccs1)c1ccc(Cl)cc1,TGI,[7],> 100 µM
same,TGI,[1],> 100 µM
COc1ccc(N=Cc2cc(OC)c(OC)c(OC)c2)cc1,TGI,[2],> 100 µM
same,TGI,[8],> 100 µM
same,TGI,[3],> 100 µM
same,TGI,[4],> 100 µM
same,TGI,[5],> 100 µM
same,TGI,[6],> 100 µM
O=[n+]1c(CBr)c(CBr)n([O-])c2ccccc21,GI50,[1],13.4 µM
same,TGI,[1],31.1 µM
O=C1/C(=C/c2ccccc2)CN(C(=O)Oc2ccc(Cl)cc2)C/C1=C\c1ccccc1,TGI,[2],3.61 µM
same,TGI,[8],36.6 µM
same,TGI,[3],8.28 µM
same,TGI,[4],2.41 µM
same,TGI,[5],> 26.8 µM
same,TGI,[6],5.71 µM
CC(=O)OCCc1cccnc1/C=N/O,TGI,[2],> 100 µM
same,TGI,[8],> 100 µM
same,TGI,[3],> 100 µM
same,TGI,[4],> 100 µM
same,TGI,[5],> 100 µM
same,TGI,[6],> 100 µM
Clc1ccc(Cc2nc3cc4ccccc4cc3[nH]2)cc1,GI50,[1],7.12 µM
same,TGI,[1],> 100 µM
O=C(O)c1cc(S(=O)(=O)N=NC=C2c3ccccc3N(O)c3ccccc32)ccc1O,TGI,[2],64.6 µM
same,TGI,[8],85.4 µM
same,TGI,[3],63.6 µM
same,TGI,[4],58.6 µM
same,TGI,[5],96.5 µM
NS(=O)(=O)c1ccc(-n2nc(-c3ccc(Br)cc3)ccc2=O)cc1,GI50,[1],> 10 µM
same,TGI,[1],> 10 µM
CN(C)S(=O)(=O)Nc1ccccn1,TGI,[7],> 100 µM
same,TGI,[1],> 100 µM
CCN1CCN(c2nc(NCCNc3ccnc4cc(Cl)ccc34)c3ccccc3n2)CC1,GI50,[1],2.4 µM
same,TGI,[1],15.7 µM
Clc1cccc(NC=Nc2ccc(-c3nc4ccccc4s3)cc2)c1,GI50,[1],12.1 µM
same,TGI,[1],> 50 µM
"COc1ccc(CNC(=O)[C@@H](C)N(C)C(=O)[C@@H]2CCCN2C(=O)[C@H](C(C)C)N(C)C(=O)[C@@H](NC(=O)[C@H](C(C)C)N(Cc2ccccc2)Cc2ccccc2)C(C)C)cc1OC (Bn2Val-V[NMeV]P[dNMeA]-{NH(3,4-diMeO-benzyl)})",GI50,[7],11.7 µM
same,TGI,[7],20.2 µM and 24.9 µM
same,GI50,[1],5.61 µM
same,TGI,[1],26 µM and 24.5 µM
COc1cc2c(cc1OC)C1C=NC(C(=O)O)(C2)c2ccccc21 (stereo not given),TGI,[2],> 100 µM
same,TGI,[3],> 100 µM
same,TGI,[4],> 100 µM
same,TGI,[9],> 100 µM
same,TGI,[5],> 100 µM
OC(c1cccc(C(F)(F)F)c1)c1cnccc1NC1CCCCCC1 (stereo not given),GI50,[1],1.53 µM
same,TGI,[1],4.65 µM
Fc1ccc(-c2nn(-c3ccccc3)cc2-c2nc3ccccc3o2)cc1,GI50,[1],0.491 µM
same,TGI,[1],> 100 µM
O=C1c2ccccc2-c2c1c1cc3c(cc1c(=O)n2CCCCl)OCO3,GI50,[1],42.7 µM
same,TGI,[1],> 100 µM
O=C1CCC(NC(=O)c2ccccc2)C(=O)N1 (stereo not given),TGI,[7],> 100 µM
same,TGI,[1],> 100 µM
O=[N+]([O-])c1ccc(NSc2ccccc2)cc1,TGI,[2],64 µM
same,TGI,[8],> 100 µM
same,TGI,[3],> 100 µM
same,TGI,[5],> 100 µM
same,TGI,[6],95.3 µM
CC1=C(CCCOC(=O)NCCCl)C2=C(C)C3(CC3)[C@@](C)(O)C(=O)C2=C1,GI50,[1],4.01 µM
same,TGI,[1],> 100 µM
Cc1nc2nnc(C)n2c2c1C(=O)Nc1ccccc1N2,TGI,[2],> 100 µM
same,TGI,[8],> 100 µM
same,TGI,[3],> 100 µM
same,TGI,[4],> 100 µM
same,TGI,[5],> 100 µM
same,TGI,[6],> 100 µM
CN1CCN(Cc2ccc(NC(=O)c3cncc(C#Cc4cnc(N)c5ccccc45)c3)cc2C(F)(F)F)CC1,GI50,[1],0.442 µM
same,TGI,[1],1.36 µM
O=S(=O)(O)C(O)/C=C/c1ccccc1 (stereo not given),TGI,[2],> 100 µM
same,TGI,[8],> 100 µM
same,TGI,[3],> 100 µM
same,TGI,[4],> 100 µM
Cc1cccc2c3ccc4c(c3n(C)c12)C(=O)C=CC4=O,TGI,[2],> 100 µM
same,TGI,[4],> 100 µM
same,TGI,[9],> 100 µM
same,TGI,[5],> 100 µM
CN(C)c1ccc(/C=C2\C[N+](C)(C)C/C(=C\c3ccc(N(C)C)cc3)C2=O)cc1,TGI,[2],> 100 µM
same,TGI,[8],> 100 µM
same,TGI,[3],27.7 µM
same,TGI,[4],30.3 µM
same,TGI,[5],> 95.8 µM
CCCCCCCCCCCCOC1C(CNCC2OC3OC(C)(C)OC3C2NC(=O)Nc2ccc(C(=O)OCC)cc2)OC2OC(C)(C)OC21 (stereo not given),GI50,[1],2.21 µM
same,TGI,[1],4.39 µM
O=C(O)/C=C/C(=O)Nc1ncn[nH]1,TGI,[7],> 100 µM
same,TGI,[1],> 100 µM
S=C1NCCN1C1=Nc2ccccc2CO1,GI50,[1],> 100 µM
same,TGI,[1],> 100 µM
COc1cccc(-c2nc(-c3cnccn3)n(Cc3ccccc3)n2)c1,TGI,[7],> 100 µM
same,TGI,[1],> 100 µM
COc1cccc(-c2nn(-c3ccccc3)cc2-c2ccnc(NCCCNS(=O)(=O)c3cccc(F)c3)c2)c1,GI50,[1],2.97 µM
same,TGI,[1],> 100 µM
CCOc1ccc2nc(NC(=O)/C(CC(=O)CC(C3=C(O)c4ccccc4CC3=O)c3ccccc3)=N\O)sc2c1 (stereo not given),TGI,[7],> 100 µM
same,TGI,[1],> 100 µM
CN1CCN(C(=S)N(C)C(=O)c2ccc(Cl)cc2)CC1,TGI,[7],> 100 µM
C[C@]12CCC(=O)C=C1CC[C@@H]1C2CC[C@]2(C)NC(=O)C(C#N)CC12 (stereo not given in full),TGI,[2],> 100 µM
same,TGI,[3],> 100 µM
same,TGI,[4],> 100 µM
same,TGI,[5],> 100 µM
same,TGI,[6],> 100 µM
Cn1c(-c2nonc2N)nc2cnccc21,GI50,[1],> 25 µM
same,TGI,[1],> 25 µM
O=c1c(Cl)c(Cl)cnn1-c1ccccc1,TGI,[2],2.84 µM and 5.22 µM
same,TGI,[8],22.8 µM and 21.9 µM
same,GI50,[3],0.655 µM and 6.44 µM
same,TGI,[3],24.5 µM and 15.7 µM
same,TGI,[4],11.7 µM and 8.03 µM
same,TGI,[7],6.77 µM and 3.65 µM
same,GI50,[1],5.42 µM and 1.77 µM
same,TGI,[1],12 µM and 3.23 µM
same,TGI,[5],20.8 µM
same,TGI,[6],5.47 µM
COc1ccccc1NC(=O)c1ccc(/C=C/C(=O)c2nccn2C)cc1,GI50,[1],0.628 µM
same,TGI,[1],1.65 µM
COc1ccc(CNC(=O)COc2ccc(/C=N/Nc3nc4ccccc4s3)cc2)cc1,GI50,[1],3.35 µM
same,TGI,[1],> 100 µM
N#Cc1cnn2ccn(C3OC(COC(=O)c4ccccc4)C(OC(=O)c4ccccc4)C3OC(=O)c3ccccc3)c12 (stereo not given),TGI,[7],> 21.5 µM
same,TGI,[1],21.5 µM
CC[n+]1ccc2c(c1)C(=O)c1nccc3c1c-2nc1ccccc13,GI50,[1],1.81 µM
same,TGI,[1],16.2 µM
COc1ccc(/C=C(/C(=O)O)c2cc(OC)c(OC)c(OC)c2)cc1,TGI,[2],> 100 µM
same,TGI,[3],98.2 µM
same,TGI,[4],> 100 µM
same,TGI,[9],> 100 µM
same,TGI,[5],> 100 µM
CCOC(=O)c1c(N)n(-c2ccccc2)c(=S)n(-c2ccccc2)c1=O,TGI,[7],> 100 µM
COc1ccc(-n2cc(-c3ccc(OC)c(OC)c3)[nH]c2=S)cc1Cl,GI50,[1],> 100 µM
same,TGI,[1],> 100 µM
COc1ccc(CN2CCCC(C(=O)c3ccc(C(F)(F)F)cc3)C2)c(O)c1 (stereo not given),GI50,[1],26.3 µM
same,TGI,[1],> 100 µM
OCCNCO,TGI,[3],> 100 µM
same,TGI,[4],> 100 µM
same,TGI,[5],> 100 µM
same,TGI,[6],> 100 µM
CNC(=O)c1cc(Oc2ccc3c(c2)sc2nc(-c4ccc(N)cc4)cn23)ccn1,GI50,[1],0.324 µM
same,TGI,[1],> 100 µM
C1CN2N3CCCC23C1 (stereo not given),TGI,[2],> 100 µM
same,TGI,[8],> 100 µM
same,TGI,[3],> 100 µM
same,TGI,[4],> 100 µM
same,TGI,[5],> 100 µM
same,TGI,[6],> 100 µM
